Assay results from US9359322B2, “C-linked glucuronide of N-(4-hydroxybenzyl) retinone, analogs thereof, and methods of using the same to inhibit neoplastic cell growth” (Wisconsin Alumni Research Foundation, priority 2005, dated 2016).
Marks after values point to notes of the source that are not given here.

Columns and labels:
[1] = Plasma retinol level (HPLC); type: in vivo, rat; conditions: 2 mmol/kg diet
Experimental: (§1) Baseline measurement of initial tumor sizes, numbers and rat body weights were determined immediately before commencement of treatments, and final measurements were recorded just prior to sacrifice of the animals. Animals were palpated for tumors twice weekly and tumor diameters were measured weekly by a micrometer caliper. Tumor volumes were calculated using the formula [V= 4/3 πr^3] where r is one-half the mean of the sum of the largest diameter and the axis at right angle to it. All tumors as well as lungs, liver, kidney and femur were excised at the end of the experiment for chemical and histopathological evaluation. Blood samples were also taken from each animal for determination of plasma retinol and triglyceride levels.
Plasma Retinoid Assay. To 500 μL of plasma was added 150 μL of ethanol containing 0.75 μg of internal standard (N-(4-chlorophenyl) retinamide). After mixing 30 sec., 500 μL of ethyl acetate was added followed by 1 min. of mixing and centrifugation for 5 minutes at 1000 rpm in an IEC CL centrifuge. The ethyl acetate layer was removed and syringe filtered through a 0.45 um filter. The ethyl acetate extraction was repeated two more times. The combined extracts were evaporated and the residue reconstituted in 100 μL of methanol. The methanol extract (20 μL) was analyzed by HPLC on a Beckman Instruments model 127 instrument equipped with a model 166 UV detector. Chromatography was done on a precolumn equipped 250×4.6 mm Bechman Ultrasphere ODS column with an 85% methanol/water mobile phase (both containing 10 mM ammonium acetate) flowing at 1 mL/min. Analysis for both internal standard and retinol was conducted at 350 nm and internal standard recoveries and retinol levels were determined by comparison with standard curves, with adjustment of the retinol level based on recovery. Recoveries of internal standard averaged ca. 78%. […] In the 4-HPR treated group, plasma levels of this retinoid were evaluated simultaneously in the same samples as above. In order to avoid interfering substances, plasma treatment retinoid levels for RA and 4-HBRCG were measured using the above system and a step gradient of 75% methanol for 15 min. followed by 85% methanol for 40 minutes.

[2] = tested on: CYP26A1 mRNA; assay: Induction of CYP26A1 mRNA in liver (Q-PCR); type: in vivo, rat; conditions: at sacrifice, retinoid-fed rats, 2 mmol/kg diet; FIG. 4
[3] = tested on: DMBA-induced rat mammary tumor; assay: DMBA-induced rat mammary tumor model, retinoid-containing diets; type: in vivo
Experimental: Preliminary evaluation of the mammary tumor chemotherapeutic activity of 4-HBRCG (7) was conducted, and its toxicity profile was also assessed. As previously described,^7, 12 tumor-bearing female rats (treated ca. 50 days earlier with 7,12-dimethylbenz(a)anthracene [DMBA]) were fed the control or retinoid-containing diets (RA (2), 4-HPR (3) or 4-HBRCG (7)) at 2 mmole/kg diet for 22 days.
Animal Studies: Mammary tumors were induced by intragastric intubation of 50-day old female Sprague-Dawley rats (Harlan Industries, Indianapolis, Ind.) with a single dose of 15 mg DMBA in 1.0 ml of sesame oil per rat. The rats were then maintained on a powdered Teklad 22/5 rodent chow diet (W) 8640 (Harlan Industries, Indianapolis, Ind.), and allowed food and water ad libitum. Four months later, rats which had developed palpable tumors were randomly assigned to the experimental groups (4 rats/group). The retinoid-treated groups were fed diets supplemented with 2 mmol/kg diet of atRA, 4-HPR, or 4-HBRCG, respectively. The retinoids were added to the diet in a vehicle consisting of 25 ml of ethanol: tricaprylin (1:4 v/v) plus 2% (w/v) of α-tocopherol as previously described.^9 This vehicle was also added to the control diet. The additives were blended into the chow diets using a Hobart food mixer. The diets were fed in stainless steel feeders designed with food hoppers. The food was replaced weekly with freshly prepared diets. Food consumption was determined once weekly, and from that the average daily consumption/rat was estimated. These diets were continuously fed for 22 days. Animals were also weighted weekly and monitored for general health status and signs of possible toxicity due to treatment.
as §1

[4] = biological target: T1, RARβ (Homo sapiens, UniProt P10826); assay: Nuclear retinoid receptor binding assay, competition with [3H]all-trans RA; conditions: competition for [3H]atRA; present work
T1 sequence (P10826 1-455): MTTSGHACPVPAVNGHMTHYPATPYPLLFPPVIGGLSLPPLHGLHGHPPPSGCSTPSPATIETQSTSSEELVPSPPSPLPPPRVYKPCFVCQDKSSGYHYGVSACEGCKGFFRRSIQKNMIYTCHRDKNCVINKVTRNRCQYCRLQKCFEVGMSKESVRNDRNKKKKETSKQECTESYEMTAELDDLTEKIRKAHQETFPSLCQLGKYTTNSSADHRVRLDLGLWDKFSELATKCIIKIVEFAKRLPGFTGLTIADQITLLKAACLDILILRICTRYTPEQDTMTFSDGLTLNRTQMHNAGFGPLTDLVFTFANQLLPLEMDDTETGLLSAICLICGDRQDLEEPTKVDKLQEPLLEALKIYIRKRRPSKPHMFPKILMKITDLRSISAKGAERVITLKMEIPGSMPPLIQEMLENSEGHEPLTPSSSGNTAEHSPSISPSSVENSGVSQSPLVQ
Experimental: (§2) Nuclear Retinoid Receptor Binding Assay. Competition of 3 and 7 and 4-HBRCGlucose with [^3H]-all-trans-RA (4.2-4.6 nM) for binding to RARβ and RARγ and with [^3H]-9-cis RA (1.9 nM) for binding to RXRγ was determined using an in vitro ligand binding assay.^41, 42 [^3H]-all-trans-RA (40.5 Ci/mmole) or [^3H]-9-cis-RA (69.4 Ci/mmole) was added to receptor-containing extracts in the absence and presence of increasing concentrations of competing ligands at 4° C. for 3 hr. A hydroxylapatite (HAP) assay was used to separate ligand bound to receptor from that free in solution, and the radioactivity associated with the HAP pellet was measured by scintillation counting.

[5] = biological target: T2, RARγ (Homo sapiens, UniProt P13631); assay: as above; conditions: competition for [3H]atRA; present work
T2 sequence (P13631 1-454): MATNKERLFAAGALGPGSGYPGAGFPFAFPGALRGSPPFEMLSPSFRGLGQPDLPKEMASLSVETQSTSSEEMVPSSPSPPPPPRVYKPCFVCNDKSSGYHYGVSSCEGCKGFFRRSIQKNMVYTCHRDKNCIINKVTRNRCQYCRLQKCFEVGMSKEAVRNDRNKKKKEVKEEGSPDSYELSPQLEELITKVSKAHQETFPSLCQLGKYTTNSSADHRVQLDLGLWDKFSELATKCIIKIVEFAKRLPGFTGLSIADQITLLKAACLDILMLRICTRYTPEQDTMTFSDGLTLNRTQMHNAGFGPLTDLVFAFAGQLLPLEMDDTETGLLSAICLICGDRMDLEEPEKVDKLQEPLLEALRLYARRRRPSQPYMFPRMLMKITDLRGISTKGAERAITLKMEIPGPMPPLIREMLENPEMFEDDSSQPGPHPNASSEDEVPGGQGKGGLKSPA
Experimental: as §2

[6] = number of individual tumors, 2 mmol/kg diet, 22 days

Plasma retinol ([1]; day 22 of treatment, mean ± SEM): 0.40 ± 0.04 µg/mL | Times less potent than atRA in binding to RARβ [4]: 300 times | Times less potent than atRA in binding to RARγ [5]: 1400 times
Structure (SMILES): CC1=C(/C=C/C(C)=C/C=C/C(C)=C/C(=O)Cc2ccc(CC3OC(C(=O)O)C(O)C(O)C3O)cc2)C(C)(C)CCC1 [4-HBRCG (7), 2,6-Anhydro-7-deoxy-7-[4-(retinoylmethyl)-phenyl]-L-glycero-L-gulo-heptinoic acid]
Effect on blood retinol [1]: did not produce any significant reduction in blood retinol | Induction of CYP26A1 mRNA in liver [2]: did not induce these cytochrome p450 mRNAs | % Change in tumor volume from baseline ([3]; 2 mmol/kg diet for 22 days): −33 ^d % | Final tumor volume ([3]; 2 mmol/kg diet for 22 days, mean ± SEM): 0.08 ± 0.05 cm^3 | Initial tumor volumes ([3]; baseline before treatment, mean ± SEM): 0.12 ± 0.06 cm^3 | Complete regression (tumors that totally disappeared) [3, 6]: 2 | No effect [3, 6]: 2 | Partial regression (tumors with 25-75% decrease in volume) [3, 6]: 6 | New tumors ([3]; number of tumors, 2 mmol/kg diet, 22 days): 0
